The text below walks through data of patent US12415794B2 (Edgewise Therapeutics, Inc., priority 2018, dated 2025).

Test [1] has as its target T1, cardiac myofibrils (myosin ATPase).
T1 construct: frozen myofibril pellets obtained from cardiac tissue; from tissue
Put plainly: Cardiac Myofibril ATPase Assay (counter screen). The test is classed as biochemical. The note with it: myofibrils 1.0 mg/mL, KCl omitted. In short, it runs like this:
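Frozen cardiac myofibrils at 1.0 mg/mL final, KCl omitted, in a PK-LDH coupled ATPase assay; ADP production tracked as NADH loss by absorbance at 340 nm. Inhibition taken as reduced rate relative to vehicle controls, with IC50 derived.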
Background: A counterscreen serves to expose hits that act by an unwanted route or on another target.

Test [2] deals with skeletal myofibrils (myosin ATPase). Put plainly: Skeletal Myofibril ATPase Assay. The format is biochemical. The essentials: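 Skeletal myofibril ATPase measured by PK-LDH coupled NADH depletion, absorbance 340 nm read every 1.5-2 min over 45 min. Max−min rate normalized to 1% DMSO vehicle as 100%; IC50 from four-parameter logistic fit with bottom ≥0. Cardiac myofibrils used as counter-screen.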

T1 sequence (P12883 whole entry): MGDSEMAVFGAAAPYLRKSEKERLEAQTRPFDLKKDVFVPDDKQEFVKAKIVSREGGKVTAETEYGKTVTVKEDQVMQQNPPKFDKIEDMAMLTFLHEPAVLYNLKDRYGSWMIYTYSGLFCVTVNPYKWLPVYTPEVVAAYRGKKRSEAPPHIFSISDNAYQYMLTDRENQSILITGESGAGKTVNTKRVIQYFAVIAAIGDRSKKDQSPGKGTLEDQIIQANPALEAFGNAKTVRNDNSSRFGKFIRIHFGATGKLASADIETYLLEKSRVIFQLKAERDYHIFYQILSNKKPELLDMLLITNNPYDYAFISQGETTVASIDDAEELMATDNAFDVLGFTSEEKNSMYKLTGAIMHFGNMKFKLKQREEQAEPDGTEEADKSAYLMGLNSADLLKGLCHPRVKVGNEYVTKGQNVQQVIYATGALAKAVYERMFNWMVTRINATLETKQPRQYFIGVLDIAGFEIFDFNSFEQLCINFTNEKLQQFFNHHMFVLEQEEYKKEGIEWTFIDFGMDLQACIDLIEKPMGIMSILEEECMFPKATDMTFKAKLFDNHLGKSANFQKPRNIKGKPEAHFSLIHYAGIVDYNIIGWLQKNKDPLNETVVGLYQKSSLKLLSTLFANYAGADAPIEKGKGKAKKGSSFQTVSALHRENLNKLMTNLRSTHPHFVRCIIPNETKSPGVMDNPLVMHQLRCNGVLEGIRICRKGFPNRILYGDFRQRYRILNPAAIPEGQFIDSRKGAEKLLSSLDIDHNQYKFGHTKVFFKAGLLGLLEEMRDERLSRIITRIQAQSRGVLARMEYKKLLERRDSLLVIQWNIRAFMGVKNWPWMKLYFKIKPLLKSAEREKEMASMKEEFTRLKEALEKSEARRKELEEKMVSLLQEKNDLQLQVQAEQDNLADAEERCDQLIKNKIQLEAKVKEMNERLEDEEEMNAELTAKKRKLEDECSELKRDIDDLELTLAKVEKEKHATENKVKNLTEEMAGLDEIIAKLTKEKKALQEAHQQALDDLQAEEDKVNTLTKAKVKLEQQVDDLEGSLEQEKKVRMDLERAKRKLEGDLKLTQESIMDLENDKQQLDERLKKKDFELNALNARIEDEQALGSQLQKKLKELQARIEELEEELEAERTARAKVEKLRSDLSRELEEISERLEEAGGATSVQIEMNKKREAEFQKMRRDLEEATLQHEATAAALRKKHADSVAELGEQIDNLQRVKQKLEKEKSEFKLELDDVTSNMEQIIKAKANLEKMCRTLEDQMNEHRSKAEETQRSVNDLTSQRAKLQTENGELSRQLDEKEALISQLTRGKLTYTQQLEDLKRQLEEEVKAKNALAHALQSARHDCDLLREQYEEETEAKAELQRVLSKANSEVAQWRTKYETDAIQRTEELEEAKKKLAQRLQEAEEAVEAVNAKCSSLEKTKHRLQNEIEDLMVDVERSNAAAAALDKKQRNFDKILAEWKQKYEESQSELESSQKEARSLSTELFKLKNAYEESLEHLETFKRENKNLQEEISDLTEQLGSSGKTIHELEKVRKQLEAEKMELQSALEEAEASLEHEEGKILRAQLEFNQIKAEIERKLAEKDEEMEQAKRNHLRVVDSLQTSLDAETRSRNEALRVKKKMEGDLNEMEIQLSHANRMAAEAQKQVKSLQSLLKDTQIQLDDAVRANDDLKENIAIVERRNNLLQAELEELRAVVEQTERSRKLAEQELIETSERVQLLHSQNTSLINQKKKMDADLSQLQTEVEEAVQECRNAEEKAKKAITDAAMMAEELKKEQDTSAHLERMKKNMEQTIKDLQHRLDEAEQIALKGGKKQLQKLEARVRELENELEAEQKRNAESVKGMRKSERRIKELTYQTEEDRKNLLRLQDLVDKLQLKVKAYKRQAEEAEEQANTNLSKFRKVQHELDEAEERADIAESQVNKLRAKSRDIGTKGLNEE
T1 sequence (P08590 whole entry partner): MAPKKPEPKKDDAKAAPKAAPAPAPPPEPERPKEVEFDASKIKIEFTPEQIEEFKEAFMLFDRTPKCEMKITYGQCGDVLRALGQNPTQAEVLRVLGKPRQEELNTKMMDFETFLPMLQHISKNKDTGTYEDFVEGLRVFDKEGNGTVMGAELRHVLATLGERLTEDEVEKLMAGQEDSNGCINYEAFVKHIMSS
T1 sequence (P10916 whole entry partner): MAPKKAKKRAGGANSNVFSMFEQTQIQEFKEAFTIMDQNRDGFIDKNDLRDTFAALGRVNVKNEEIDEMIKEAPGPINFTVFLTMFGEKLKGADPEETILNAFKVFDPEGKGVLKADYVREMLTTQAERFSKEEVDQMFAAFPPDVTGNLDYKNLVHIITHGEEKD

In the case of `O=C(Cn1nc(-c2ccc(NC3CCC3)nc2)ccc1=O)NC1CCC1` [Compound I-52, N-cyclobutyl-2-(3-(6-(cyclobutylamino)pyridin-3-yl)-6-oxopyridazin-1(6H)-yl)acetamide], the figures for the IC50 in test [1] (Table 5A) and in test [2] (Table 4A) were greater than 100 µM and less than 10 µM, respectively.

In the case of `O=C(Cn1nc(-c2ccc(OCC(F)(F)F)cc2)ccc1=O)NCc1ccc[nH]c1=O` [II-26, N-((2-oxo-1,2-dihydropyridin-3-yl)methyl)-2-(6-oxo-3-(4-(2,2,2-trifluoroethoxy)phenyl)pyridazin-1(6H)-yl)acetamide], the IC50 in test [1] (Table 5B) was greater than 100 µM; in test [2] (Table 4B), 10 to 100 µM.

For the compound `O=C(Cn1nc(-c2ccc3c(c2)OCCO3)ccc1=O)Nc1ccccc1F` [IIIb-17, 2-(3-(2,3-dihydrobenzo[b][1,4]dioxin-6-yl)-6-oxopyridazin-1(6H)-yl)-N-(2-fluorophenyl)acetamide], the values for the IC50 in test [1] (Table 5C) and in test [2] (Table 4C) were greater than 100 µM and less than 10 µM, respectively.

On to `O=C(Cn1nc(-c2ccc(OC(F)F)nc2)ccc1=O)NC1CC(F)(F)C1` [Compound I-33], for which the IC50 in test [1] (Table 5A) and in test [2] (Table 4A) was greater than 100 µM each time.

Turning to `COc1ccc(-c2ccc(=O)n(CC(=O)NCc3ccc(C)cc3)n2)cc1` [IIIa-15, 2-(3-(4-methoxyphenyl)-6-oxopyridazin-1(6H)-yl)-N-(4-methylbenzyl) acetamide], the results for the IC50 in test [1] (Table 5C) and in test [2] (Table 4C) were greater than 100 µM and less than 10 µM, respectively.

Turning to `COc1ccc(-c2ccc(=O)n(CC(=O)Nc3ccc(Cl)cc3Cl)n2)c(F)c1` [IIIb-35, N-(2,4-dichlorophenyl)-2-(3-(2-fluoro-4-methoxyphenyl)-6-oxopyridazin-1(6H)-yl)acetamide], the figures for the IC50 in test [1] (Table 5C) and in test [2] (Table 4C) were greater than 100 µM and 10 to 100 µM, respectively.

Consider `Cc1ccc(-c2ccc(=O)n(CC(=O)NCCc3ccccc3)n2)cc1` [IIIc-3, 2-(6-oxo-3-(p-tolyl)pyridazin-1(6H)-yl)-N-phenethylacetamide], for which the IC50 in test [1] (Table 5C) is greater than 100 µM; in test [2] (Table 4C) it was less than 10 µM.

For the compound `O=C(Cn1nc(-c2ccccc2)ccc1=O)Nc1ccccc1C(F)(F)F` [IIIc-52, 2-(6-oxo-3-phenylpyridazin-1(6H)-yl)-N-(2-(trifluoromethyl)phenyl)acetamide], the results for the IC50 in test [1] (Table 5C) and in test [2] (Table 4C) were greater than 100 µM and 10 to 100 µM, respectively.

In the case of `O=C(Cn1nc(-c2ccc(OC(F)F)cc2)ccc1=O)NCC1CCC1` [II-18, N-(cyclobutylmethyl)-2-(3-(4-(difluoromethoxy)phenyl)-6-oxopyridazin-1(6H)-yl)acetamide], the IC50 in test [1] (Table 5B) was greater than 100 µM; in test [2] (Table 4B) it was 10 to 100 µM.

In the case of `CCNC(=O)Cn1nc(-c2ccc(SC)nc2)ccc1=O` [Compound I-63, N-ethyl-2-(3-(6-(methylthio)pyridin-3-yl)-6-oxopyridazin-1(6H)-yl)acetamide], the IC50 in test [1] (Table 5A) was greater than 100 µM; in test [2] (Table 4A), less than 10 µM.

Consider `CC(CCNC(=O)Cn1nc(-c2ccccc2)ccc1=O)c1ccccc1` (stereo not drawn) [IIIc-53, 2-(6-oxo-3-phenylpyridazin-1(6H)-yl)-N-(3-phenylbutyl)acetamide], for which the results for the half-maximal inhibitory concentration (IC50) in test [1] (Table 5C) and in test [2] (Table 4C) were greater than 100 µM and 10 to 100 µM, respectively.

Consider `CC(C)CNC(=O)Cn1nc(-c2ccc(Cl)cc2)ccc1=O` [IIIc-35, 2-(3-(4-chlorophenyl)-6-oxopyridazin-1(6H)-yl)-N-isobutylacetamide], for which the results for the IC50 in test [1] (Table 5C) and in test [2] (Table 4C) were greater than 100 µM and 10 to 100 µM, respectively.

As for `Cc1ccc(-c2ccc(=O)n(CC(=O)NC3CCCC3)n2)cc1` [IIIc-5, N-cyclopentyl-2-(6-oxo-3-(p-tolyl)pyridazin-1(6H)-yl)acetamide], the IC50 in test [1] (Table 5C) is greater than 100 µM; in test [2] (Table 4C) it was 10 to 100 µM.

For the compound `O=C(Cn1nc(-c2ccc3c(c2)OCCCO3)ccc1=O)NC1CCCCCC1` [IIIb-24, N-cycloheptyl-2-(3-(3,4-dihydro-2H-benzo[b][1,4]dioxepin-7-yl)-6-oxopyridazin-1(6H)-yl)acetamide], the figures for the IC50 in test [1] (Table 5C) and in test [2] (Table 4C) were greater than 100 µM and 10 to 100 µM, respectively.

Regarding `Cn1ccc2c(NC(=O)Cn3nc(-c4ccc(F)cc4)ccc3=O)cccc21` [IIIc-16, 2-(3-(4-fluorophenyl)-6-oxopyridazin-1(6H)-yl)-N-(1-methyl-1H-indol-4-yl)acetamide], the IC50 is greater than 100 µM in test [1] (Table 5C) and less than 10 µM in test [2] (Table 4C).

As for `CCOc1ccc(-c2ccc(=O)n(CC(=O)NC(C)C)n2)cc1` [IIIa-6, 2-(3-(4-ethoxyphenyl)-6-oxopyridazin-1(6H)-yl)-N-isopropylacetamide], the figures for the IC50 in test [1] (Table 5C) and in test [2] (Table 4C) were greater than 100 µM and less than 10 µM, respectively.

Turning to `CCNC(=O)Cn1nc(-c2ccc(NC34CC(C3)C4)nc2)ccc1=O` [Compound I-36, 2-(3-(6-(bicyclo[1.1.1]pentan-1-ylamino)pyridin-3-yl)-6-oxopyridazin-1(6H)-yl)-N-ethylacetamide], the IC50 in test [1] (Table 5A) was greater than 100 µM; in test [2] (Table 4A), less than 10 µM.

Consider `CC(C)NC(=O)Cn1nc(-c2ccccc2)ccc1=O` [IIIc-63, N-isopropyl-2-(6-oxo-3-phenylpyridazin-1(6H)-yl)acetamide], for which the IC50 in test [1] (Table 5C) and in test [2] (Table 4C) was greater than 100 µM in each case.

As to `COc1ccc(-c2ccc(=O)n(CC(=O)NCCC3=CCCCC3)n2)cc1` [IIIb-14, N-(2-(cyclohex-1-en-1-yl)ethyl)-2-(3-(4-methoxyphenyl)-6-oxopyridazin-1(6H)-yl)acetamide], the IC50 in test [1] (Table 5C) is greater than 100 µM; in test [2] (Table 4C), less than 10 µM.

Take `O=C(Cn1nc(-c2ccc(OC(F)F)cc2)ccc1=O)NCC(F)F` [II-15, N-(2,2-difluoroethyl)-2-(3-(4-(difluoromethoxy)phenyl)-6-oxopyridazin-1(6H)-yl)acetamide]: the concentration for half-maximal inhibition (IC50) was greater than 100 µM in test [1] (Table 5B) and 10 to 100 µM in test [2] (Table 4B).

As for `COc1ccc(-c2ccc(=O)n(CC(=O)NC(C)c3ccccc3Cl)n2)cc1` (stereo not drawn) [IIIa-25, N-(1-(2-chlorophenyl)ethyl)-2-(3-(4-methoxyphenyl)-6-oxopyridazin-1(6H)-yl)acetamide], the results for the half-maximal inhibitory concentration (IC50) in test [1] (Table 5C) and in test [2] (Table 4C) were greater than 100 µM and 10 to 100 µM, respectively.

`COc1ccc(-c2ccc(=O)n(CC(=O)N(C)c3ccccc3)n2)cc1` [IIIc-7, 2-(3-(4-methoxyphenyl)-6-oxopyridazin-1(6H)-yl)-N-methyl-N-phenylacetamide]: the values for the IC50 in test [1] (Table 5C) and in test [2] (Table 4C) were greater than 100 µM and 10 to 100 µM, respectively.

With `COc1ccccc1NC(=O)Cn1nc(-c2ccccc2)ccc1=O` [IIIc-58, N-(2-methoxyphenyl)-2-(6-oxo-3-phenylpyridazin-1(6H)-yl)acetamide], the IC50 in test [1] (Table 5C) is greater than 100 µM; in test [2] (Table 4C), 10 to 100 µM.

For `CCNC(=O)Cn1nc(-c2ccc(OC(C)(F)F)cc2)ccc1=O` [II-1, 2-(3-(4-(1,1-difluoroethoxy)phenyl)-6-oxopyridazin-1(6H)-yl)-N-ethylacetamide], the IC50 is 10 to 100 µM in test [1] (Table 5B) and less than 10 µM in test [2] (Table 4B).

In the case of `COc1ccc(-c2ccc(=O)n(CC(=O)NCc3cc(Cl)ccc3Cl)n2)cc1`, the IC50 in test [1] (Table 5C) is greater than 100 µM; in test [2] (Table 4C), less than 10 µM.

With `CCNC(=O)Cn1nc(-c2ccc(OCC(F)(F)F)nc2)ccc1=O` [Compound I-13, N-ethyl-2-(6-oxo-3-(6-(2,2,2-trifluoroethoxy)pyridin-3-yl)pyridazin-1(6H)-yl)acetamide], the values for the IC50 in test [1] (Table 5A) and in test [2] (Table 4A) were greater than 100 µM and 10 to 100 µM, respectively.

With `COc1ccc(-c2ccc(=O)n(CC(=O)NCc3cnn(C)c3)n2)cc1` [IIIa-32, 2-(3-(4-methoxyphenyl)-6-oxopyridazin-1(6H)-yl)-N-((1-methyl-1H-pyrazol-4-yl)methyl) acetamide], the IC50 in test [1] (Table 5C) and in test [2] (Table 4C) was greater than 100 µM throughout.

Regarding `CC[C@@H](C)NC(=O)Cn1nc(-c2ccc(OC(F)F)nc2)ccc1=O` [Compound I-66, (R)-N-(sec-butyl)-2-(3-(6-(difluoromethoxy)pyridin-3-yl)-6-oxopyridazin-1(6H)-yl)acetamide], the IC50 in test [1] (Table 5A) is greater than 100 µM; in test [2] (Table 4A), less than 10 µM.

Take `CCNC(=O)Cn1nc(-c2ccc(C3CC3)cc2)ccc1=O` [IIIa-19]: the figures for the IC50 in test [1] (Table 5C) and in test [2] (Table 4C) were greater than 100 µM and less than 10 µM, respectively.

Regarding `Cc1ccc(-c2ccc(=O)n(CC(=O)NC3CCCCC3)n2)cc1` [IIIc-6, N-cyclohexyl-2-(6-oxo-3-(p-tolyl)pyridazin-1(6H)-yl)acetamide], the figures for the IC50 in test [1] (Table 5C) and in test [2] (Table 4C) were greater than 100 µM and 10 to 100 µM, respectively.

For the compound `CC(C)(C)NC(=O)Cn1nc(-c2ccc(OC(F)F)cc2)ccc1=O` [II-16, N-(tert-butyl)-2-(3-(4-(difluoromethoxy)phenyl)-6-oxopyridazin-1(6H)-yl)acetamide], the IC50 in test [1] (Table 5B) is greater than 100 µM; in test [2] (Table 4B), 10 to 100 µM.

Consider `COc1ccc(-c2ccc(=O)n(CC(=O)NCc3ccco3)n2)cc1` [IIIb-53, N-(furan-2-ylmethyl)-2-(3-(4-methoxyphenyl)-6-oxopyridazin-1(6H)-yl)acetamide], for which the IC50 in test [1] (Table 5C) and in test [2] (Table 4C) was greater than 100 µM each time.

As to `COc1ccc(-c2ccc(=O)n(CC(=O)NCc3ccccc3Cl)n2)c(F)c1` [IIIa-13, N-(2-chlorobenzyl)-2-(3-(2-fluoro-4-methoxyphenyl)-6-oxopyridazin-1(6H)-yl)acetamide], the IC50 was greater than 100 µM in test [1] (Table 5C) and less than 10 µM in test [2] (Table 4C).

As to “N-cyclobutyl-2-[3-[2-(2-methylpropoxy)pyrimidin-5-yl]-6-oxopyridazin-1-yl]acetamide [Compound I-79]”, the IC50 in test [1] (Table 5A) and in test [2] (Table 4A) was greater than 100 µM each time.

As for `CCNC(=O)Cn1nc(-c2ccc(N3CC(OC(F)F)C3)nc2)ccc1=O` [Compound I-55, 2-(3-(6-(3-(difluoromethoxy)azetidin-1-yl)pyridin-3-yl)-6-oxopyridazin-1(6H)-yl)-N-ethylacetamide], the IC50 in test [1] (Table 5A) is greater than 100 µM; in test [2] (Table 4A), 10 to 100 µM.

For `COc1ccc(-c2ccc(=O)n(CC(=O)NCc3cccc(C)c3)n2)cc1` [IIIa-10, 2-(3-(4-methoxyphenyl)-6-oxopyridazin-1(6H)-yl)-N-(3-methylbenzyl) acetamide], the IC50 is greater than 100 µM in test [1] (Table 5C) and less than 10 µM in test [2] (Table 4C).

By IC50 is commonly meant the concentration at which inhibition is half-maximal. High values mean a need for much substance, low ones inhibition by little substance.
